Like-named read-outs stand apart in the source and are kept apart here.
Tests used:
[1] = test system: erythrocytic cells; assay: Percent hemolysis of erythrocytic cells during loading or incubation; assay type: cell-based; settings: 800 mM trehalose, 100 mOsm ADSOL, 6.6 mM Na-phosphate; 38-41° C., 6 hours
[2] = test system: erythrocytic cells; assay: Mean corpuscular hemoglobin of trehalose-loaded, freeze-dried and rehydrated erythrocytic cells; assay type: cell-based
Description: The cells had been loaded in media with different trehalose concentration (400 mM trehalose, 500 mM trehalose, 600 mM trehalose, 700 mM trehalose and 800 mm trehalose) in 100 mOsm PBS pH 7.2. The cells were freeze-dried in 300 mM trehalose in 100 mOsm PBS, 15% HES and 2.54% HSA and rehydrated in a buffer containing 188 mM trehalose, 15% HES and 2.5% HSA.

[3] = test system: erythrocytic cells; assay: Hemolysis / survival of freeze-dried and rehydrated erythrocytic cells
Description: Cells were loaded in either 800 mM trehalose, 100 mOsm ADSOL, 6.6 mM Na-phosphate (FIG. 21, data set labeled as 800 mM treh) or in 800 mM trehalose, 100 mOsm ADSOL, 6.6 mM Na-phosphate and 1.2 mg/ml α-crystallin (FIG. 21, data set labeled as +α-crystallin 1.2 mg/ml). Cells were subsequently mixed with freeze-drying buffer with final concentration of 250 mM trehalose, 20 mOsm ADSOL, 15% HES and 2.5% HSA and were freeze-dried. After freeze-drying they were directly rehydrated (no pre-hydration) in 141 mM trehalose, 75 mOsm PBS, 11.25% HES and 1.875% HSA. […] In the third data set of FIG. 21, along with 1.2 mg/ml α-crystallin, there was 0.5 mg/ml α-crystallin added to the rehydration buffer.
Rehydration experiments were performed combining α-crystallin and Zn^2+ ions, and applying 5 min pre-hydration.
The cells were loaded in media with different trehalose concentration (400, 500, 600, 700 and 800 mM trehalose) in 100 mOsm PBS pH 7.2. The cells were freeze-dried in 300 mM trehalose in 100 mOsm PBS, 15% HES and 2.54% HSA and rehydrated in a buffer containing 188 mM trehalose, 15% HES and 2.5% HSA.
Loading buffer comprised 800 mM trehalose in a salt solution of 100 mOsm PBS. The incubation time was 16 hours at a temperature of about 35° C. After the cells were loaded, they were subsequently washed in a washing buffer comprising 300 mM in a salt solution of 100 mOsm PBS. Within 3 hours after washing the loaded cells, the wash loaded cells were freeze-dried in freeze-drying buffer comprising about 300 mM trehalose, about 100 mOsm PBS, about 2.5% by wt. HSA, and about 15% by wt. HES. After the freeze-drying procedure the cells had about 75 mM trehalose, about 25 mOsm PBS, about 0.6% by wt. HSA and about 4.0% by wt. HES left in the cells. The freeze-dried cells were then reconstituted at about 37° C. for about 10 minutes in a rehydration buffer comprising about 188 mM trehalose, about 100 mOsm PBS, about 2.5% by wt.

[4] = test system: erythrocytic cells; assay: Osmotic fragility index of trehalose-loaded erythrocytic cells; assay type: cell-based
Description: FIG. 6 graphically illustrates the fragility index of erythrocytic cells incubated overnight at respective temperatures of 4° C. and 37° C. in the presence of and as a function of increasing intracellular trehalose concentrations. The osmotic fragility index was generated by the extent of hemolysis as a function of the NaCl concentration. The erythrocytic cells that had been loaded in trehalose solutions (between 250 mM and 1000 mM) in 100 mOsm PBS were suspended in increasing concentrations of NaCl (between 50 and 600 mOsm NaCl). The percent hemolysis measured after resuspending the loaded cells in NaCl represents the fragility index.

[5] = test system: erythrocytic cells; assay: ATP level of erythrocytic cells; assay type: cell-based
Source text: (§1) Levels of ATP and DPG may be measured or assayed in biological samples (e.g., in cells) by any suitable means or procedure. By way of example only, levels of ATP and DPG may be measured or assayed in biological samples (e.g., in cells) by using Sigma Diagnostic (Sigma Aldrich Chemicals, St. Louis, Mo.) assay kits (cat. # for ATP assay 366 and 366-A, and for 2,3-DPG assay 35-A) designed for determination of ATP and 2,3-DPG in biological samples (e.g., red blood cells). By further way of example only, biological samples (e.g., cells) may be lysed using 12% and 8% trichloracetic acid for ATP and 2,3-DPG determination, respectively. ATP may be quantified enzymatically by catalyzing ATP to ADP in the presence of 3-phosphoglycerate (3-PGA) using phosphoglycerate phosphokinase (PGK) and the resulting 1,3-diphosphoglycerate induced oxidation of NADH to NAD using glyceraldehyde phosphate dehydrogenase (GAPD) present in the assay media. The level of NADH may be monitored spectrophotometrically at 340 nm which corresponds directly with the ATP level. 2,3-DPG may be hydrolyzed by 2,3-DPG phosphatase to 3-PGA and inorganic phosphorus in the presence of 2-phosphoglycolic acid as a stimulator. 3-PGA reacts with ATP in the presence of PGK and the subsequent steps follow the above protocol used for ATP quantification. […]

[6] = test system: platelets; assay: Stability of platelets during incubation (microscopy, flow cytometric analysis); assay type: cell-based, human
Description: The stability of the platelets during a 4 hours incubation period was studied using microscopy and flow cytometric analysis. […] No signs of microvesicle formation could be observed after 4 hours incubation, as can be judged by the stable relative proportion of microvesicle gated cells (less than 3%). The formation of microvesicles is usually considered as the first sign of platelet activation (Owners et al., Trans. Med. Rev., 8, 27-44, 1994). Characteristic antigens of platelet activation include: glycoprotein 53 (gp53, a lysosomal membrane marker), PECAM-1 (platelet endothelial cell adhesion molecule-1, an alpha granule constituent), and P-selection (an alpha granule membrane protein).

[7] = test system: erythrocytic cells; assay: 2,3-DPG level of erythrocytic cells; assay type: cell-based
Source text: as §1

OC[C@H]1O[C@H](O[C@H]2O[C@H](CO)[C@@H](O)[C@H](O)[C@H]2O)[C@H](O)[C@@H](O)[C@@H]1O [trehalose]
extent of hemolysis during loading [1]: about 17%
mean corpuscular hemoglobin in rehydrated cells ([2]; cells loaded in 400 mM trehalose): about 7 pg
mean corpuscular hemoglobin in rehydrated cells ([2]; cells loaded in 800 mM trehalose): about 14 pg
MCH ([2]; intracellular trehalose about 40 mM to about 42 mM): about 9 pg
MCH ([2]; intracellular trehalose about 60 mM): greater than 14 pg
biconcave shape and cell integrity of rehydrated cells ([3]; 60 mM cytoplasmic trehalose, freeze-dried and rehydrated (FIG. 14)): well preserved
cells lysed after rehydration ([3]; protocol of Example 12: loaded 800 mM trehalose/100 mOsm PBS, freeze-dried and rehydrated with trehalose, PBS, HSA, HES): less than 5%
hemolysis at 100000 µM ([3]; read-out: % hemolysis of rehydrated cells): < 10%
hemolysis at 800000 µM ([3]; read-out: hemolysis after freeze-drying and direct rehydration): 63%
hemolysis at 800000 µM ([3]; read-out: percent hemolysis after freeze-drying and direct rehydration): 68%
osmotic fragility ([4]; 1000 mM trehalose in 100 mOsm PBS at 37° C.): unstable
osmotic fragility ([4]; trehalose media between 250 mM and 800 mM in 100 mOsm PBS, 37° C. and 4° C.): stable osmotically
level of ATP ([5]; 37° C., during 16 hours of incubation): does not decrease
level of ATP ([5]; trehalose solute solution, about 37° C., about 0 to about 7 hours, increases from about 4.0): about 4.5 μmol/gHb
platelet morphology ([6]; 4 hours incubation at 37° C., 25 mM external trehalose): No morphological changes
platelet morphology ([6]; 4 hours incubation in 75 mM trehalose): swollen
relative proportion of microvesicle gated cells ([6]; after 4 hours incubation): less than 3%
level of 2,3-DPG ([7]; 37° C., first 7 hours of incubation): high
level of 2,3-DPG ([7]; 7 hours incubation at about 37° C. in a trehalose containing solution): about 8.5 μmol/gHb

Source: patent US20050031597A1, “Cells and improved method for preserving cells” (priority 2003, published 2005)
